This note sets out measurements from patent publication US8362000B2, “Azetidinyl diamides as monoacylglycerol lipase inhibitors” (Janssen Pharmaceutica NV, priority 2009, dated 2013).

Usually IC50 stands for the concentration that inhibits the measured activity by half. Higher therefore signals lower potency.

Substitutions are numbered along the chain they refer to. Read-outs that look alike come from different tables or passages of the source. Where only a bound is given, the exact number is not on record here.

The target of one experiment is T1, mutant MGL (Homo sapiens, UniProt Q99685, L169S/L176S).
T1 sequence (Q99685 1-303 L169S/L176S): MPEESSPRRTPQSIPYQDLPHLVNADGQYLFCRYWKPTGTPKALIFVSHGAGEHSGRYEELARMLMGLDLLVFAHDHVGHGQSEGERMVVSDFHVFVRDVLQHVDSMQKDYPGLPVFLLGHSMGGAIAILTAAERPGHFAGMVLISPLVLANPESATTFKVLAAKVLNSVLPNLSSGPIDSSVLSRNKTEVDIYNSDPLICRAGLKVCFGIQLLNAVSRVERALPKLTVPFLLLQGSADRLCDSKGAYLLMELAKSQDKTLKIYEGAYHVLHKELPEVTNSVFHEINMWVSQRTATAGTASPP
Briefly: MGL ThermoFluor assay - mutant. It is filed as binding.

Another experiment addresses T2, MGL (Rattus norvegicus, UniProt Q8R431).
T2 construct: one g rat brain was homogenized using a Polytron homogenizer; from tissue; host or cells: rat brain homogenate
T2 sequence (Q8R431 1-303): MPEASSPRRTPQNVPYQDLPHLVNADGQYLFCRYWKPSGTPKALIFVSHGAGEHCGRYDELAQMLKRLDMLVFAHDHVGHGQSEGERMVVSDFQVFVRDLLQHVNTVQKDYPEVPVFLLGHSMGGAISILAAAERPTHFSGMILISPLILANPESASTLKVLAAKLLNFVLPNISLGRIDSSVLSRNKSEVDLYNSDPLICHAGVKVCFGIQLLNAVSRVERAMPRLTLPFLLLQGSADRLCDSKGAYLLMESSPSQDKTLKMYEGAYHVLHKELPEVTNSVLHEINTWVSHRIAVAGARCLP
Briefly: 2-AG accumulation assay in rat brain homogenate. The following applies: rat brain homogenate, 2-AG accumulation as percent of vehicle; for 2-AG accumulation, % of vehicle control at 1 µM: compound 1 μM, read-out: Rat Brain 2AG % VehCntrl (%) @ 1 μM; for 2-AG accumulation, % of vehicle control at 0.1 µM: compound 0.1 μM, read-out: Rat Brain 2AG % VehCntrl (%) @ 0.1 μM; for 2-AG accumulation, % of vehicle control at 10 µM: compound 10 μM, read-out: Rat Brain 2AG % VehCntrl (%) @ 10 μM. Format: biochemical.

Experiment [1] addresses T3, purified wild type MGL (wt-MGLL 6H-11-313) (Homo sapiens, UniProt Q99685).
T3 sequence (Q99685 1-303): T1 sequence (Q99685 1-303 L169S/L176S) with S169L, S176L

Setting [2] is: ThermoFluor, compound concentration measured by qNMR, read-out: MGL mutant ThermoFluor qKd (μM) (using qNMR conc.).
Setting [3] is: ThermoFluor thermal stability binding assay, read-out: MGL mutant ThermoFluor Kd.
[4] abbreviates: ThermoFluor concentration-response, read-out: MGL mutant ThermoFluor Kd.
Setting [5] is: compound concentration measured by qNMR, read-out: MGL mutant ThermoFluor qKd (using qNMR conc.).

Protocol for mutant MGL: The ThermoFluor (TF) assay is a 384-well plate-based binding assay that measures thermal stability of proteins^1,2. […] TF dye used in all experiments was 1,8-ANS (Invitrogen: A-47). Final TF assay conditions used for MGL studies were 0.07 mg/ml of mutant MGL, 100 μM ANS, 200 mM NaCl, 0.001% Tween-20 in 50 mM PIPES (pH=7.0).
Screening compound plates contained 100% DMSO compound solutions at a single concentration. […] Columns 12 and 24 were used as DMSO reference and contained no compound. […] Following compound dispension, protein and dye solutions were added to achieve the final assay volume of 3 μL.
Bar-coded assay plates were robotically loaded onto a thermostatically controlled PCR-type thermal block and then heated from 40 to 90° C. degrees at a ramp-rate of 1° C./min for all experiments. Fluorescence was measured by continuous illumination with UV light (Hamamatsu LC6), supplied via fiber optics and filtered through a band-pass filter (380-400 nm; >60D cutoff). Fluorescence emission of the entire 384-well plate was detected by measuring light intensity using a CCD camera (Sensys, Roper Scientific) filtered to detect 500±25 nm, resulting in simultaneous and independent readings of all 384 wells. A single image with 20-sec exposure time was collected at each temperature, and the sum of the pixel intensity in a given area of the assay plate was recorded vs temperature and fit to standard equations to yield the Tm^1. • 1.
For some experiments, quantitative NMR spectroscopy (qNMR) was used to measure concentration of the initial 100% DMSO compound solutions and, using the same fitting method, qKd values were determined

Consider `O=C(c1cc(-c2cccc(F)c2)c2[nH]ccc2c1)N1CC(N2CCN(C(=O)c3nccs3)CC2)C1` [Cpd 1183], for which, on mutant MGL (setting [2]), the Kd was 0.067 µM. In addition, the 2-AG accumulation, % of vehicle control at 1 µM on MGL was 549%. In experiment [1], this compound showed an IC50 of 85 nM.
Regarding `O=C(c1ccc2c(c1)Sc1ccccc1O2)N1CC(N2CCN(C(=O)c3cscn3)CC2)C1` [Cpd 654], the Kd on mutant MGL (setting [3]) amounted to 0.04 µM. In addition, the 2-AG accumulation, % of vehicle control at 1 µM at MGL turned out to be 389%. This compound also displayed an IC50 in experiment [1] of 7 nM.
For `O=C(c1cc2cc(-c3ccccc3)ccc2o1)N1CC(N2CCN(C(=O)c3nccs3)CC2)C1` [Cpd 1342], in that order: 0.136 µM, 346% and under 5 nM.
Consider `O=C(c1ccc(-c2ccc(C(F)(F)F)s2)cc1)N1CCN(C2CN(C(=O)c3nccs3)C2)CC1` [Cpd 1161], for which the Kd at mutant MGL (setting [4]) came to 0.025 µM. For the same compound, at MGL, the 2-AG accumulation, % of vehicle control at 1 µM worked out at 459%. The same compound had an IC50 in experiment [1] of 46 nM.
For `O=C(c1ccc(-c2ccccc2)cc1)N1CCN(C2CN(C(=O)c3ncco3)C2)CC1` [Cpd 1283, 1-(Biphenyl-4-ylcarbonyl)-4-[1-(1,3-oxazol-2-ylcarbonyl)azetidin-3-yl]piperazine], the Kd at mutant MGL (setting [4]) was 0.523 µM. Besides, on MGL, the 2-AG accumulation, % of vehicle control at 1 µM is 62%. This compound also had an IC50 in experiment [1] of 2170 nM.
As to `O=C(Nc1ccc(C(=O)N2CC(N3CCN(C(=O)c4nccs4)CC3)C2)cc1)c1cc(F)ccc1Cl` [Cpd 702], the Kd at mutant MGL (ThermoFluor, compound concentration measured by qNMR, read-out: MGL mutant ThermoFluor qKd (using qNMR conc.)) is 0.207 µM. The 2-AG accumulation, % of vehicle control at 1 µM at MGL came to 848%. The compound also came in with an IC50 in experiment [1] of 303 nM.
For `O=C(c1cscn1)N1CCN(C2CN(C(=O)c3sc4cc(F)c(C(F)(F)F)cc4c3Cl)C2)CC1` [Cpd 659], at mutant MGL (setting [2]), the Kd was found to be 0.006 µM. The 2-AG accumulation, % of vehicle control at 1 µM on MGL is 576%. Besides, the IC50 in experiment [1] turned out to be 9 nM.
As to `O=C(c1cscn1)N1CC(N2CCN(C(=O)c3cc4cc(C(F)(F)F)ccc4s3)CC2)C1` [Cpd 716, 1-[1-(1,3-Thiazol-4-ylcarbonyl)azetidin-3-yl]-4-{[5-(trifluoromethyl)-1-benzothiophen-2-yl]carbonyl}piperazine], the Kd at mutant MGL (setting [4]) is 0.04 µM. For the same compound, the 2-AG accumulation, % of vehicle control at 1 µM on MGL is 326%. In addition, in experiment [1], the 50% inhibitory concentration (IC50) was determined as 140 nM.
With `O=C(c1ccc[nH]1)N1CCN(C2CN(C(=O)c3nn(-c4ccc(Cl)cc4Cl)c4c3CSC/C4=C\c3ccc(F)cc3)C2)CC1` [Cpd 1024], at mutant MGL (setting [5]), the Kd turned out to be 0.135 µM. Also, the 2-AG accumulation, % of vehicle control at 1 µM at MGL is 281%. Moreover, the IC50 in experiment [1] worked out at 69 nM.
For the compound `O=C(c1ccc2c(c1)CCN(Cc1ccccc1)C2)N1CC(N2CCN(C(=O)c3nccs3)CC2)C1` [Cpd 680, 2-Benzyl-6-({3-[4-(1,3-thiazol-2-ylcarbonyl)piperazin-1-yl]azetidin-1-yl}carbonyl)-1,2,3,4-tetrahydroisoquinoline], the Kd at mutant MGL (setting [3]) turned out to be 0.053 µM. The 2-AG accumulation, % of vehicle control at 1 µM at MGL was 356%. It took 25 nM to reach half-maximal inhibition in experiment [1] (IC50).
Regarding `Cc1cc(C(=O)N2CC(N3CCN(C(=O)c4nccs4)CC3)C2)ccc1-c1ccccc1` [Cpd 1322, 1-{1-[(2-Methylbiphenyl-4-yl)carbonyl]azetidin-3-yl}-4-(1,3-thiazol-2-ylcarbonyl)piperazine], the Kd at mutant MGL (setting [4]) turned out to be 0.002 µM. In addition, the 2-AG accumulation, % of vehicle control at 1 µM on MGL was found to be 457%. Moreover, the IC50 in experiment [1] is under 5 nM.
Take `O=C(c1cscn1)N1CCN(C2CN(C(=O)c3ccc(-c4cccc(C(F)(F)F)c4)cc3F)C2)CC1` [Cpd 245, 1-(1-{[3-Fluoro-3′-(trifluoromethyl)biphenyl-4-yl]carbonyl}azetidin-3-yl)-4-(1,3-thiazol-4-ylcarbonyl)piperazine]: the Kd on mutant MGL (setting [3]) worked out at 0.0095 µM. For the same compound, at MGL, the 2-AG accumulation, % of vehicle control at 0.1 µM was 224%; the 2-AG accumulation, % of vehicle control at 1 µM was 518%; the 2-AG accumulation, % of vehicle control at 10 µM stood at 829%. Moreover, the IC50 in experiment [1] was 16.4 nM.
For `O=C(c1ccc2c(c1)CCCN2)N1CC(N2CCN(C(=O)c3nccs3)CC2)C1` [Cpd 357, 6-(3-[4-(1,3-Thiazol-2-ylcarbonyl)piperazin-1-yl]-azetidin-1-yl)carbonyl-1,2,3,4-tetrahydroquinoline], the Kd on mutant MGL (setting [3]) was determined as 0.238 µM. For the same compound, the 2-AG accumulation, % of vehicle control at 1 µM at MGL was 152%. This compound also came in with an IC50 in experiment [1] of 3750 nM.
For `O=C(c1ccc(OCc2ccc3ccccc3n2)cc1)N1CC(N2CCN(C(=O)C(F)(F)F)CC2)C1` [Cpd 968], the Kd on mutant MGL (setting [5]) was determined as 1.46 µM. For the same compound, the 2-AG accumulation, % of vehicle control at 1 µM on MGL came out at 360%. In experiment [1], this compound registered an IC50 of 19 nM.
As to `O=C(c1ccc(Sc2cccc(C(F)(F)F)c2)cc1)N1CC(N2CCN(C(=O)c3cscn3)CC2)C1` [Cpd 432], at mutant MGL (setting [4]), the Kd is 0.025 µM. The 2-AG accumulation, % of vehicle control at 1 µM on MGL is 321%. Moreover, in experiment [1], the IC50 is under 5 nM.
With `O=C(c1cscn1)N1CCN(C2CN(C(=O)c3ccc(-c4ccc(F)c(Cl)c4)cc3Cl)C2)CC1` [Cpd 265, 1-{1-[(3,3′-Dichloro-4′-fluorobiphenyl-4-yl)carbonyl]azetidin-3-yl}-4-(1,3-thiazol-4-ylcarbonyl)piperazine], the Kd at mutant MGL (setting [3]) worked out at 0.0198 µM. Also, on MGL, the 2-AG accumulation, % of vehicle control at 0.1 µM is 126%; the 2-AG accumulation, % of vehicle control at 1 µM came to 162%; the 2-AG accumulation, % of vehicle control at 10 µM was 643%. In experiment [1], this compound displayed an IC50 of 19 nM.
Regarding `Cc1cc(C(=O)N2CCN(C3CN(C(=O)c4ccc(-c5ccccc5)cc4)C3)CC2)no1` [Cpd 1465], the Kd at mutant MGL (setting [3]) was over 31.2 µM. The 2-AG accumulation, % of vehicle control at 1 µM at MGL is 110%. In addition, the IC50 in experiment [1] was over 16700 nM.
With `O=C(c1ccccc1)N1CCN(C2CN(C(=O)c3ccc(Oc4ncc(C(F)(F)F)cc4Cl)cc3)C2)CC1` [Cpd 507], the Kd on mutant MGL (setting [4]) was 0.317 µM. The 2-AG accumulation, % of vehicle control at 1 µM on MGL was 190%. This compound also registered an IC50 in experiment [1] of 52 nM.
For the compound `O=C(c1cscn1)N1CCN(C2CN(C(=O)c3sc4c(C(F)(F)F)c(F)ccc4c3Cl)C2)CC1` [Cpd 697], the Kd on mutant MGL (setting [2]) stood at 0.024 µM. Moreover, at MGL, the 2-AG accumulation, % of vehicle control at 1 µM stood at 431%. In experiment [1], this compound yielded an IC50 of 62 nM.
In the case of `Cc1sc(C(=O)N2CC(N3CCN(C(=O)c4nccs4)CC3)C2)cc1-c1cccc(C(F)(F)F)c1` [Cpd 1351], on mutant MGL (setting [2]), the Kd is 0.043 µM. Moreover, the 2-AG accumulation, % of vehicle control at 1 µM at MGL was 718%. Further, the IC50 in experiment [1] is under 5 nM.
As to `O=C(c1ccccc1)N1CCN(C2CN(C(=O)c3ccc4c(ccn4-c4cc(F)cc(F)c4)c3)C2)CC1` [Cpd 580], at mutant MGL (setting [2]), the Kd is 0.118 µM. Moreover, on MGL, the 2-AG accumulation, % of vehicle control at 1 µM was 179%. 69 nM corresponded to half-maximal inhibition in experiment [1] (IC50).
Regarding `O=C(c1ccc(-c2cccc(C(F)(F)F)c2)cc1)N1CC(N2CCN(C(=O)c3ccc[nH]3)CC2)C1` [Cpd 1325], the Kd at mutant MGL (setting [3]) came to 0.006 µM. At MGL, the 2-AG accumulation, % of vehicle control at 1 µM is 575%. For the same compound, in experiment [1], the 50% inhibitory concentration (IC50) is under 5 nM.
The like results for `Cc1cc(C(=O)N2CC(N3CCN(C(=O)c4cscn4)CC3)C2)ccc1-c1ccc(F)c(Cl)c1` [Cpd 257, 1-{1-[(3′-Chloro-4′-fluoro-2-methylbiphenyl-4-yl)carbonyl]azetidin-3-yl}-4-(1,3-thiazol-4-ylcarbonyl)piperazine] were, in that order, 0.0033 µM, 285% and under 5 nM.
For `O=C(c1nccs1)N1CCN(C2CN(C(=O)c3cc(-c4ccccc4)ccc3Cl)C2)CC1` [Cpd 1200], the Kd on mutant MGL (setting [4]) came out at 0.5 µM. The 2-AG accumulation, % of vehicle control at 1 µM on MGL is 231%. Also, it took 151 nM to reach half-maximal inhibition in experiment [1] (IC50).
The like results for `N#Cc1ccc(-c2ccc(C(=O)N3CC(N4CCN(C(=O)c5nccs5)CC4)C3)cc2)cc1` [Cpd 167, 4′-({3-[4-(1,3-Thiazol-2-ylcarbonyl)piperazin-1-yl]azetidin-1-yl}carbonyl)biphenyl-4-carbonitrile] were, in that order, 0.0558 µM, 481% and 15.2 nM.
On to `O=C(c1ccc(-c2ccc(Br)cc2)cc1)N1CC(N2CCN(C(=O)c3cscn3)CC2)C1` [Cpd 172, 1-{1-[(4′-Bromobiphenyl-4-yl)carbonyl]azetidin-3-yl}-4-(1,3-thiazol-4-ylcarbonyl)piperazine], for which the Kd at mutant MGL (setting [4]) stood at 0.1 µM. Further, on MGL, the 2-AG accumulation, % of vehicle control at 1 µM was 217%. Besides, inhibition in experiment [1] was half-maximal at 7.3 nM (IC50).
